Read-outs that look alike come from different tables or passages of the source.
What was measured:
human neutrophils = experiment: Inhibition of superoxide (O₂⁻) generation from neutrophils; type: cell-based; settings: Neutrophil
Source text: (§1) The one assay provides IC₅₀'s for the inhibition of superoxide generation. DeChatelet, L. R., Shirley, P. S. and Johnson, R. B. 1976. Effect of phorbol myristate acetate on the oxidative metabolism of human polymorphonuclear leukocytes. Blood 47:545-554. The other assay is a generally recognized in vivo assay to show activity useful for treating ARDS. The in vivo assay is described in J. Clin. Invest., Vol. 69, May 1982, pp 1126-1135.
The activity for each of these compounds as numbered above is expressed as IC₅₀'s for the inhibition of superoxide generation and is shown in the following Table A: TABLE A
Further, activity for compounds of examples noted in the following Table A₁ likewise show IC₅₀'s for the inhibition of superoxide generation. TABLE A1

[1] = test system: CVF Induced Lung Injury in Rats; experiment: Inhibition of cobra venom factor (CVF) induced lung injury in rats (in vivo ARDS assay); settings: for Lung Injury (x ± SEM): saline control 0.20 ± 0.01, CVF alone 1.45 ± 0.19
Source text: as §1
Accordingly, the compounds of the Formula II are now found to be particularly useful for treating ARDS shown by the inhibition of cobra venom factor (CVF) induced lung injury in rats using the Compound No. 1 above in the in vivo assay shown as follows in Table B: TABLE B

[2] = Table A1, read-out: IC₅₀ (µM) Inhibition of O₂⁻ generation from neutrophils
[3] = Table A, read-out: IC₅₀ (µM) Inhibition of O₂⁻ generation from neutrophils
[4] = given intravenously (20 mg/kg) 10 minutes before intravenous injection of CVF
[5] = injected intraperitoneally (20 mg/kg) 20 minutes before CVF

## COc1cc2sc(C(=O)Nc3nnn[nH]3)c(OCc3ccccc3)c2cc1OC [Example C21A, 5,6-Dimethoxy-3-(phenylmethoxy)-N-1H-tetrazol-5-yl-benzo[b]thiophene-2-carboxamide]
Human neutrophils; [2]
  IC50: 40 µM

## COc1ccc2sc(C(=O)Nc3nnn[nH]3)c(OCc3ccccc3)c2c1 [compound 5, 3-Benzyloxy-5-methoxy-N-1H-tetrazol-5-yl-benzo[b]thiophene-2-carboxamide]
Human neutrophils; [3]
  IC50: 23 µM

## COc1ccc2sc(C(=O)Nc3nnn[nH]3)c(SC(C)C)c2c1 [compound 3, 5-Methoxy-3-[(1-methylethyl)thio-N-1Htetrazol-5-yl]-benzo[b]thiophene-2-carboxamide]
Human neutrophils; [3]
  IC50: 23 µM

## COc1ccc2c(OC(C)C)c(C(=O)Nc3nnn[nH]3)oc2c1 [compound 4, 6-Methoxy-3-(1-methylethoxy)-N-1H-tetrazol-5-yl-2-benzofurancarboxamide]
Human neutrophils; [3]
  IC50: 75 µM

## COc1ccc2c(Oc3ccccc3)c(C(=O)Nc3nnn[nH]3)sc2c1 [Example C21D, 6-Methoxy-3-phenoxy-N-1H-tetrazol-5-yl-benzo[b]thiophene-2-carboxamide]
Human neutrophils; [2]
  IC50: > 100 µM

## COc1ccc2sc(C(=O)Nc3nnn[nH]3)c(Oc3ccccc3)c2c1 [compound 6, 5-Methoxy-3-phenoxy-N-1H-tetrazol-5-yl-benzo[b]thiophene-2-carboxamide]
Human neutrophils; [3]
  IC50: 10 µM

## COc1ccc2sc(C(=O)Nc3nnn[nH]3)c(OC(C)C)c2c1 [Compound No. 1, 5-Methoxy-3-(1-methylethoxy)-N-1H-tetrazol-5-yl-benzo[b]thiophene-2-carboxamide]
Human neutrophils; [3]
  IC50: 19 µM
[1]; [4]
  Protection % Inhibition of Injury: 76%
  Lung Injury (x ± SEM): 0.48 ± 0.08
[1]; [5]
  Protection % Inhibition of Injury: 58%
  Lung Injury (x ± SEM): 0.73 ± 0.06

## COc1cc2sc(C(=O)Nc3nnn[nH]3)c(Oc3ccccc3)c2cc1OC [Example C21]
Human neutrophils; [2]
  IC50: 6 µM

## COc1ccc2c(OC(C)C)c(C(=O)Nc3nnn[nH]3)sc2c1 [compound 2, 6-Methoxy-3-(1-methylethoxy)-N-1H-tetrazol-5-yl-benzo[b]thiophene-2-carboxamide]
Human neutrophils; [3]
  IC50: 37 µM

## CC(C)Oc1c(C(=O)Nc2nnn[nH]2)sc2ccc(O)cc12 [Example C20A, 3-(1-Methylethoxy)-5-hydroxy-N-1H-tetrazol-5-yl-benzo[b]-thiophene-2-carboxamide]
Human neutrophils; [2]
  IC50: 48 µM

— patent EP0299457A2, “Novel benzothiophenes having antiallergic activity and both novel and other selected benzothiophenes having activity for treating acute respiratory distress syndrome” (WARNER-LAMBERT COMPANY, priority 1987, dated 1989)
